# According to ChEMBL document CHEMBL6120948, “Design, Synthesis, and Biological Evaluation of Lysine-Stapled Peptide Inhibitors of p53-MDM2/MDMX Interactions with Potent Antitumor Activity In Vivo” (J Med Chem, 2024):
# Key:
# [1] = Antiproliferative activity against human U-87 MG cells expressing wild-type p53 incubated for 72 hrs by MTT assay; type: functional, cell-based, U-87MG ATCC
# [2] = Induction of alpha-helical conformation in phosphate buffer at pH 7 at 100 uM by CD analysis; type: physicochemical; settings: pH 7, 100 µM
# MCF7 = assay: Antiproliferative activity against human MCF7 cells expressing wild-type p53 incubated for 72 hrs by MTT assay; type: functional, cell-based; settings: MCF7, 72 h
Molecule,IC50 [1],Activity [2],IC50 (MCF7)
CC(=O)N[C@@H](CC(C)C)C(=O)N[C@H](C(=O)N[C@@H](Cc1ccccc1)C(=O)N[C@@H](CCC(=O)O)C(=O)N[C@H]1CCCCNCc2ccc(cc2)CNCCCC[C@@H](C(=O)N[C@@H](CC(C)C)C(=O)N[C@H](C(=O)N[C@@H](CO)C(=O)N[C@@H](C)C(=O)N[C@@H](C)C(N)=O)[C@@H](C)O)NC(=O)[C@H](C)NC(=O)[C@H](Cc2c[nH]c3ccccc23)NC(=O)[C@H](Cc2ccc(O)cc2)NC1=O)[C@@H](C)O,> 160 µM,11%,6.91 µM
CC(=O)N[C@@H](CC(C)C)C(=O)N[C@H](C(=O)N[C@@H](Cc1ccccc1)C(=O)N[C@H]1CCCCNCc2ccccc2CNCCCC[C@@H](C(=O)N[C@@H](CCC(N)=O)C(=O)N[C@@H](CC(C)C)C(=O)N[C@H](C(=O)N[C@@H](CO)C(=O)N[C@@H](C)C(=O)N[C@@H](C)C(N)=O)[C@@H](C)O)NC(=O)[C@H](Cc2c[nH]c3ccccc23)NC(=O)[C@H](Cc2ccc(O)cc2)NC(=O)[C@H](Cc2c[nH]cn2)NC1=O)[C@@H](C)O,> 160 µM,11%,11.3 µM
CC(=O)N[C@@H](CC(C)C)C(=O)N[C@H](C(=O)N[C@@H](Cc1ccccc1)C(=O)N[C@@H](CCC(=O)O)C(=O)N[C@H]1CCCCNCc2ccccc2CNCCCC[C@@H](C(=O)N[C@@H](CC(C)C)C(=O)N[C@H](C(=O)N[C@@H](CO)C(=O)N[C@@H](C)C(=O)N[C@@H](C)C(N)=O)[C@@H](C)O)NC(=O)[C@H](C)NC(=O)[C@H](Cc2c[nH]c3ccccc23)NC(=O)[C@H](Cc2ccc(O)cc2)NC1=O)[C@@H](C)O,> 160 µM,11%,145 µM
CC(=O)N[C@@H](CC(C)C)C(=O)N[C@H](C(=O)N[C@@H](Cc1ccccc1)C(=O)N[C@@H](CCC(=O)O)C(=O)N[C@H]1CCCCNCc2cccc(c2)CNCCCC[C@@H](C(=O)N[C@@H](CC(C)C)C(=O)N[C@H](C(=O)N[C@@H](CO)C(=O)N[C@@H](C)C(=O)N[C@@H](C)C(N)=O)[C@@H](C)O)NC(=O)[C@H](C)NC(=O)[C@H](Cc2c[nH]c3ccccc23)NC(=O)[C@H](Cc2ccc(O)cc2)NC1=O)[C@@H](C)O,138 µM,11%,> 160 µM
CC(=O)N[C@@H](CC(C)C)C(=O)N[C@H](C(=O)N[C@@H](Cc1ccccc1)C(=O)N[C@H]1CCCCNCC#CCNCCCC[C@@H](C(=O)N[C@@H](CCC(N)=O)C(=O)N[C@@H](CC(C)C)C(=O)N[C@H](C(=O)N[C@@H](CO)C(=O)N[C@@H](C)C(=O)N[C@@H](C)C(N)=O)[C@@H](C)O)NC(=O)[C@H](Cc2c[nH]c3ccccc23)NC(=O)[C@H](Cc2ccc(O)cc2)NC(=O)[C@H](Cc2c[nH]cn2)NC1=O)[C@@H](C)O,> 160 µM,11%,> 160 µM
CC(=O)N[C@@H](CC(C)C)C(=O)N[C@H](C(=O)N[C@@H](Cc1ccccc1)C(=O)N[C@@H](CCC(=O)O)C(=O)N[C@H]1CCCCNCC#CCNCCCC[C@@H](C(=O)N[C@@H](CC(C)C)C(=O)N[C@H](C(=O)N[C@@H](CO)C(=O)N[C@@H](C)C(=O)N[C@@H](C)C(N)=O)[C@@H](C)O)NC(=O)[C@H](C)NC(=O)[C@H](Cc2c[nH]c3ccccc23)NC(=O)[C@H](Cc2ccc(O)cc2)NC1=O)[C@@H](C)O,> 160 µM,11%,19.9 µM
CC(=O)N[C@@H](CC(C)C)C(=O)N[C@H](C(=O)N[C@@H](Cc1ccccc1)C(=O)N[C@H]1CCCCNCc2ccc(cc2)CNCCCC[C@@H](C(=O)N[C@@H](CCC(N)=O)C(=O)N[C@@H](CC(C)C)C(=O)N[C@H](C(=O)N[C@@H](CO)C(=O)N[C@@H](C)C(=O)N[C@@H](C)C(N)=O)[C@@H](C)O)NC(=O)[C@H](Cc2c[nH]c3ccccc23)NC(=O)[C@H](Cc2ccc(O)cc2)NC(=O)[C@H](Cc2c[nH]cn2)NC1=O)[C@@H](C)O,> 160 µM,11%,> 160 µM
Ac-LTFEHYWAQLTS-NH2,–,11%,–
